“Also recorded” adds a separate entry of the source.
Legend:
[1] = test system: 129 MEFs transduced with OK (Oct4 and Klf4); experiment: Screen for iPSC generation from OK-transduced 129 MEFs (ESC-like colony morphology, ALP staining); format: cell-based, mouse; conditions: in the absence of BIX
Protocol: Unmodified MEFs derived from E13-14 embryos of the 129 mice were used for the initial screen. MEFs were plated on Matrigel at 3.5×10^4 cells/well of a 6-well plate and transduced with OK (retroviral vectors expressing Oct4 and Klf4) alone. Within 14-21 days, treated cells were assessed for the appearance of colonies that had the characteristic embryonic stem cell (ESC), colony morphology and were positive for the pluripotency marker alkaline phosphatase (ALP). Such OK-transduced cells generated only a few small non-compact colonies, which were weakly positive for ALP expression. These colonies initially appeared within 21 days after viral transduction and were difficult to expand. Therefore, such assay system offered a clean background for the identification of small molecules having desirable reprogramming inducing activity. Using this system, compounds from a library of around 2000 known small molecules (see Experimental Procedures below) were screened and were identified as hits when they induced the appearance of ESC colonies that were strongly positive for ALP within 14-21 days after treatment. This image-based method provided a more accurate assessment of reprogramming as compared to homogenous reporter-based assay. BIX appeared to have the strongest effect with reproducible induction of more than 1-2 compact ESC-like colonies with high ALP expression. We observed that when MEFs were treated with BIX after OK viral transduction, compact colonies with strong ALP expression could be readily detected within approximately 14-21 days. These cells were also positive for Nanog, Oct4 and SSEA-1 expression. […] However, the reprogramming efficiency in MEFs transduced with OK and treated with BIX was still low, about 2 colonies/3.5×10^4 cells, in comparison to the four factor-induced reprogramming of MEFs or the OK/BIX NPC reprogramming (Shi, Y. et al., Cell Stem Cell, 2:525-528 (2008)). Therefore, we conducted a second screen using a similar protocol, but where BIX was added to the basal media after OK viral transduction. This provided a more permissive platform to identify new small molecules that could further improve reprogramming efficiency. More importantly, this second screen could facilitate discovery of small molecules that impact reprogramming in a more specific manner, for example by acting on signal transduction pathways rather than on histone or DNA modifying enzymes. In this second screen, we again assayed the library of around 2000 known small molecules (see Experimental Procedures), and confirmed two compounds that were able to act in a synergistic manner with BIX to improve reprogramming based on the criteria of the screen. […] Therefore, RG108 was not pursued further for this study. […]

[2] = test system: OG2 MEFs transduced with OK (Oct4 and Klf4); experiment: iPSC generation from OK-transduced OG2 MEFs (GFP+ colonies), including second synergist screen with BIX; format: cell-based, mouse; conditions: for effect on reprogramming of OK transduced MEFs in the second screen: in the presence of 1 μM BIX, FIG. 3: 0.04 μM RG108, 2 μM BayK; for outcome in second synergist screen: 1 μM BIX plus individual compound at 0.5-2 μM, not further followed up
Protocol: Primary 129S2/SvPasCrlf (primary screen) or ROSA26^+/−/OG2^+/− (secondary screen) MEFs were plated onto Matrigel (1:50; BD Biosciences, Bedford, Mass.) coated dishes at a density of 3.5×10^4 cells per well of a 6-well plate. Twenty-four hours later, these cells were transduced overnight with defined retroviruses at 37° C., 5% CO2. Twelve to fourteen hours later, the media on the transduced cells was changed to mESC medium [Knockout DMEM, 10% ES-qualified FBS, 10% Knockout serum replacement, 1% Glutamax, 1% Non-essential amino acids, penicillin/streptomycin, 0.1 mM β-mercaptoethanol, 1% EmbryoMax ESC Qualified Nucleosides (Millipore, Temecula, Calif.), and 10^3 U/ml LIF (Millipore)] (all products were from Invitrogen, Carlsbad, Calif., except where mentioned). On that same day, individual small molecules from our known drug collection were added to the cells at a range between 0.5 and 2 μM. Compound treatment was continued for 10-14 days; the cells were fixed and stained on day 14-21 using a standard ALP detection kit (Millipore). For the second screen, 1 μM BIX was added to the mESC medium 1 day after transduction. Five days later, in addition to 1 μM BIX, individual small molecule from the known drug collection was added to each well, at a range between 0.5 and 2 μM. Mouse ESC media with defined small molecules was refreshed every three days until colonies with a similar morphology to mESCs were observed, which was usually between 14-21 days after transduction. […] Further characterization studies and repeats were carried either on primary 129S2/SvPasCrlf or ROSA26^+/−/OG2^+/− MEFs. When ROSA26^+/−/OG2^+/− MEFs were used, the iPSC colonies could also be identified through GFP expression, as a marker of Oct4 expression. Once iPSC colonies were identified, they were picked for expansion on MEF feeder cells in mESC medium.

mES R1 cells = experiment: Proliferation assay; format: cell-based, mouse; conditions: 2 μM BayK, 1 μM BIX or both; 15, 24 and 48 hours; compared to DMSO, n=3
Protocol: mES R1 cells were plated onto gelatin-coated 6-well plates at a density of 2×10^5 cells/well in complete mES cell media. Upon cell attachment, app. 12 hours, the cells were treated either with DMSO, 1 μM BIX, 2 μM BayK, and a combination of both, in triplicate. At 15, 24 and 48 hours, the cells were detached using trypsin, and counted using a hemocytometer. Trypan blue (Sigma-Aldrich, St. Louis, Mo.) was used for dead cell exclusion.

[3] = test system: Sox2 expression in OG2 MEFs; experiment: Assessment of SOX2 expression after compound treatment (semi-quantitative RT-PCR); format: cell-based, mouse; conditions: 2 μM BayK alone or with 1 μM BIX, 6 days
Protocol: OG2^+/−/ROSA26^+/− MEFs were plated onto 6-well plate at a density of 3.4×10^4 cells per well. On the following day, the cells were treated with DMSO, 1 μM BIX, 2 μM BayK, and a combination of both, in triplicate, for 6 days. The media was refreshed at day 3. RNA from each well was then isolated using the RNAeasy Mini Kit (Quiagen). Reverse transcription of the RNA was performed using the iScript™cDNA Synthesis Kit (BioRad, Hercules, Calif.). Amplification of endogenous Sox2 was done using primers previously published (Takahashi, K., Okita, K., Nakagawa, M., and Yamanaka, S. (2007). Induction of pluripotent stem cells from fibroblast cultures. Nat Protoc 2, 3081-3089; Takahashi, K., and Yamanaka, S. (2006). Induction of pluripotent stem cells from mouse embryonic and adult fibroblast cultures by defined factors. Cell 126, 663-676) with Platinum PCR SuperMix (Invitrogen) on a Mastercycler® ep gradient PCR machine (Eppendorf).

cellular reprogramming = experiment: Enhancement of cellular reprogramming by nuclear receptor ligands; format: cell-based
Mouse fibroblasts = experiment: Induction of pluripotency by incubation of fibroblasts with poly-Arg transcription factor proteins; format: cell-based; conditions: agent added during protein-induced reprogramming
Protocol: Mouse fibroblasts were grown in mESC medium supplemented with 8 μg/ml of either Oct4/Sox2/Klf4 or Oct4/Sox2/Klf4/Myc (all proteins comprising poly-Arg as described above) for 6-8 hours, washed, and incubated for 2-3 days in mESC media without the above-listed transcription factors. This (4-12 hours with, 1-3 days without) was repeated a number (1, 2, 3, 4, or more) of times and then the cells were cultures in mESC for two weeks.

non-iPS cells = experiment: MEK inhibitor applied at late stage of reprogramming as selection: growth of non-iPS cells; format: cell-based, mouse; conditions: late stage of reprogramming (after Oct4-GFP activation)
Excerpt: (§1) Finally, we observed that the application of a specific small molecule inhibitor of MEK, PD0325901, to late stage of reprogramming (e.g. after Oct4-GFP activation) can serve as an excellent selection strategy for generating iPS cells. Due to the very low efficiency of reprogramming, iPS cells are typically selected out by utilizing reporter (e.g. Neo/Puro or GFP) that is under control of the regulatory elements of a pluripotency marker using genetically modified somatic cell lines, or manually picked out based on cell morphology. While the later method applicable to genetically unmodified cells is better suited for ultimate clinical application of iPS cells, it is a much more tedious and less reliable technique that typically requires picking and propagating over several passages many colonies, only a small fraction of which would become true iPS cells efficiently. This is partly because that large percentage of similarly looking colonies may be partially reprogrammed cells and/or simply transformed cells, which grow rapidly and may interfere with growth and reprogramming of iPS cells. Consequently, having an alternative selection strategy for genetically unmodified cells would be highly desirable.

iPS cells = experiment: MEK inhibitor applied at late stage of reprogramming as selection: growth and stable reprogramming of iPS cells; format: cell-based, mouse; conditions: late stage of reprogramming (after Oct4-GFP activation)
Excerpt: as §1

COC(=O)C1=C(C)NC(C)=C([N+](=O)[O-])C1c1ccccc1C(F)(F)F (stereo not shown) [BayK]
reprogramming activity on OK-transduced MEFs [1]: no observable reprogramming activity
reprogramming efficiency versus OK-transduced MEF control ([2]; compound alone, in the absence of BIX (data not shown)): did not increase reprogramming efficiency above OK-transduced MEF control
effect on reprogramming of OK transduced MEFs in the second screen [2]: strongest effect in the screen aside from known DNA/histone modifiers
proliferation of mES cells (cell number) (mES R1 cells): No significant difference; also recorded: does not lead to a change in proliferation
SOX2 expression [3]: does not induce SOX2 expression

C=C(c1ccc(C(=O)O)cc1)c1cc2c(cc1C)C(C)(C)CCC2(C)C [Bexarotene]
cellular reprogramming (cellular reprogramming; at 3 μM): enhance cellular reprogramming

Cc1c[nH]c(-c2cnc(NCCNc3ccc(C#N)cn3)nc2-c2ccc(Cl)cc2Cl)n1 [CHIR99021]
efficiency and speed of development of pluripotent cells (Mouse fibroblasts): improved efficiency and speed of development of pluripotent cells

CC(C)C[C@H](NC(=O)OCC1c2ccccc2-c2ccccc21)C(=O)O [Fmoc-Leu]
cellular reprogramming (cellular reprogramming; at 5 μM): enhance cellular reprogramming

CCN(CC)CCCCNc1ncc2cc(-c3cc(OC)cc(OC)c3)c(NC(=O)NC(C)(C)C)nc2n1 [PD173074]
outcome in second synergist screen [2]: primary hits

O=C(NOC[C@H](O)CO)c1ccc(F)c(F)c1Nc1ccc(I)cc1F [PD0325901]
growth of non-iPS cells (non-iPS cells): inhibits growth of non-iPS cells
growth and stable reprogramming of iPS cells (iPS cells): effectively promotes growth and stable reprogramming of iPS cells
efficiency and speed of development of pluripotent cells (Mouse fibroblasts): improved efficiency and speed of development of pluripotent cells

O=C(O)C(Cc1c[nH]c2ccccc12)N1C(=O)c2ccccc2C1=O (stereo not shown) [RG108]
effect on reprogramming of OK transduced MEFs in the second screen [2]: enhanced reprogramming of OK transduced MEFs in the presence of BIX

NC(=O)c1ccc(-c2nc(-c3ccc4c(c3)OCO4)c(-c3ccccn3)[nH]2)cc1 [SB431542]
efficiency and speed of development of pluripotent cells (Mouse fibroblasts): improved efficiency and speed of development of pluripotent cells

Cc1cc(Nc2ncc3c(n2)N(C)C(=O)N(c2cc(NC(=O)c4cccc(C(F)(F)F)c4)ccc2C)C3)n(C)n1 [pluripotin]
outcome in second synergist screen [2]: primary hits

c1nc2nc(Nc3ccc(N4CCOCC4)cc3)nc(NC3CCCCC3)c2[nH]1 [reversine]
outcome in second synergist screen [2]: primary hits
